For one series, the system named is female C57BL/6 mice. The series can be described thus: Determination of maximum tolerated dose (MTD), highest oral dose without hypercalcemia (serum calcium). It is filed as in vivo. The following applies: eight week-old female C57BL/6 mice, p.o. daily for four days in miglyol; highest dose without hypercalcemia (serum calcium >10.7 mg/dl) on day five. As for the experimental part:
(§1) The maximum tolerated dose of the vitamin D3 compounds of the invention were determined in eight week-old female C57BL/6 mice (3 mice/group) dosed orally (0.1 ml/mouse) with various concentrations of Vitamin D3 analogs daily for four days. Analogs were formulated in miglyol for a final concentration of 10, 30, 100 and 300 μg/kg when given at 0.1 ml/mouse p.o. daily. Blood for serum calcium assay was drawn by tail bleed on day five, the final day of the study. Serum calcium levels were determined using a colorimetric assay (Sigma Diagnostics, procedure no. 597). The highest dose of analog tolerated without inducing hypercalcemia (serum calcium >10.7 mg/dl) was taken as the maximum tolerated does (MTD).

A further series has as its system IFN-γ production. Briefly: IFN-γ production by allogeneic T cell activation in the mixed leukocyte response (MLR). The following applies: MLR of allogeneic PBMC from 2 different donors, 5 days, IFN-γ by ELISA, 50% inhibition of IFN-γ production. The format is cell-based. As for the experimental part: Immature dendritic cells (DC) were prepared as described in Romani, N. et al., J. Immunol. Meth. 196:137. IFN-γ production by allogeneic T cell activation in the mixed leukocyte response (MLR) was determined as described in Penna, G., et al., J. Immunol., 164: 2405-2411 (2000).
Briefly, peripheral blood mononuclear cells (PBMC) were separated from buffy coats by Ficoll gradient and the same number (3×105) of allogeneic PBMC from 2 different donors were co-cultured in 96-well flat-bottom plates. After 5 days, IFN-γ production in the MLR assay was measured by ELISA and the results expressed as amount (nM) of test compound required to induce 50% inhibition of IFN-γ production (IC50) (Table 1).

A short description of series [1]: Determination of maximum tolerated dose (MTD), highest oral dose without hypercalcemia (serum calcium). It is filed as in vivo. The following applies: mouse, in vivo, po; eight week-old female C57BL/6 mice, p.o. daily for four days in miglyol; highest dose without hypercalcemia (serum calcium >10.7 mg/dl) on day five; read-out: MTD (mice). The method, then:
as §1

In the case of “1α-Fluoro-25-hydroxy-20S-20-(4-hydroxy-5,5,5-trideutero-4-trideuteromethyl-pentyl)-23E-ene-26,27-hexafluorocholecalciferol [Compound 21]”, the “MTD (mice)” value with female C57BL/6 mice is 10 µg/kg. The same molecule displayed a concentration for half-maximal inhibition (IC50) in the series with IFN-γ production of 0.0071 nM.

As for `C=C1/C(=C\C=C2/CCC[C@@]3(C)C2CC[C@@H]3[C@](C)(C/C=C\C(O)(C(F)(F)F)C(F)(F)F)CCCC(C)(C)O)CC(O)C[C@@H]1O` (stereo partly drawn) [Compound 5, (20S)-1,25-Dihydroxy-20-(5,5,5-trifluoro-4-hydroxy-4-trifluoromethyl-pent-(2Z)-enyl)cholecalciferol], in series [1], the MTD at 4 days was 0.3 µg/kg. For the same molecule, the concentration for half-maximal inhibition (IC50) in the series with IFN-γ production (120 h) worked out at 0.042 nM.

Take `C=C1/C(=C\C=C2/CCC[C@@]3(C)C2CC[C@@H]3[C@@](C)(C/C=C\C(O)(C(F)(F)F)C(F)(F)F)CCCC(C)(C)O)C[C@@H](O)C[C@@H]1O` (stereo partly drawn) [Compound 8, (20R)-1,25-Dihydroxy-20-[(2Z)-5,5,5-trifluoro-4-hydroxy-4-trifluoromethyl-pent-2-enyl]-cholecalciferol]: the MTD at 4 days in series [1] is 0.3 µg/kg. Besides, the half-maximal inhibitory concentration (IC50) in the series with IFN-γ production (120 h) turned out to be 0.057 nM.

As for `C=C1/C(=C\C=C2/CCC[C@@]3(C)C2CC[C@@H]3[C@@](C)(C/C=C/C(O)(C(F)(F)F)C(F)(F)F)CCCC(C)(C)O)C[C@@H](O)C[C@@H]1O` (stereo partly drawn) [Compound 9, (20R)-1,25-Dihydroxy-20-[(2E)-5,5,5-trifluoro-4-hydroxy-4-trifluoromethyl-pent-2-enyl]-cholecalciferol], the MTD at 4 days in series [1] is 0.1 µg/kg. Also, the IC50 in the series with IFN-γ production (120 h) stood at 0.049 nM.

Turning to `CC(C)(O)CCC[C@@](C)(CC#CC(O)(C(F)(F)F)C(F)(F)F)[C@H]1CCC2/C(=C/C=C3/CC(O)C[C@H](O)C3)CCC[C@@]21C` (stereo partly drawn) [Compound 10, (20S)-1,25-Dihydroxy-20-(5,5,5-trifluoro-4-hydroxy-4-trifluoromethyl-pent-2-ynyl)-19-nor-cholecalciferol], the MTD at 4 days in series [1] is 0.3 µg/kg. Besides, half-maximal inhibition in the series with IFN-γ production (120 h) (IC50) required 0.0436 nM.

Take `CC(C)(O)CCC[C@@](C)(C/C=C\C(O)(C(F)(F)F)C(F)(F)F)[C@H]1CCC2/C(=C/C=C3/CC(O)C[C@H](O)C3)CCC[C@@]21C` (stereo partly drawn) [Compound 11, (20S)-1,25-Dihydroxy-20-[(2Z)-5,5,5-trifluoro-4-hydroxy-4-trifluoromethyl-pent-2-enyl]-19-nor-cholecalciferol]: in series [1], the MTD at 4 days is 3 µg/kg. Half-maximal inhibition in the series with IFN-γ production (120 h) (IC50) required 0.253 nM.

Take `C=C1/C(=C\C=C2/CCC[C@@]3(C)C2CC[C@@H]3[C@](C)(CC#CC(O)(C(F)(F)F)C(F)(F)F)CCCC(C)(C)O)CC(O)C[C@@H]1F` (stereo partly drawn) [Compound 13, (20S)-1α-Fluoro-25-hydroxy-20-(5,5,5-trifluoro-4-hydroxy-4-trifluoromethyl-pent-2-ynyl)-cholecalciferol]: the MTD at 4 days in series [1] was 100 µg/kg. The molecule further came in with an IC50 in the series on IFN-γ production (120 h) of 0.358 nM.

For `C=C1/C(=C\C=C2/CCC[C@@]3(C)C2CC[C@@H]3[C@](C)(C/C=C\C(O)(C(F)(F)F)C(F)(F)F)CCCC(C)(C)O)CC(O)C[C@@H]1F` (stereo partly drawn) [Compound 14, (20S)-1α-Fluoro-25-hydroxy-20-[(2Z)-5,5,5-trifluoro-4-hydroxy-4-trifluoromethyl-pent-2-enyl]-cholecalciferol], the MTD at 4 days in series [1] was 100 µg/kg. Also, in the series on IFN-γ production (120 h), half-maximal inhibition (IC50) required 1.01 nM.

For the molecule `C=C1/C(=C\C=C2/CCC[C@@]3(C)C2CC[C@@H]3[C@](C)(C/C=C/C(O)(C(F)(F)F)C(F)(F)F)CCCC(C)(C)O)CC(O)C[C@@H]1F` (stereo partly drawn) [Compound 15, (20S)-1α-Fluoro-25-hydroxy-20-[(2E)-5,5,5-trifluoro-4-hydroxy-4-trifluoromethyl-pent-2-enyl]-cholecalciferol], the MTD at 4 days in series [1] is 10 µg/kg. In addition, the IC50 in the series on IFN-γ production (120 h) worked out at 0.119 nM.

Consider `[2H]C([2H])([2H])C(O)(CCC[C@@](C)(C/C=C\C(O)(C(F)(F)F)C(F)(F)F)[C@H]1CCC2/C(=C/C=C3/C[C@@H](O)C[C@H](O)C3=C)CCC[C@@]21C)C([2H])([2H])[2H]` (stereo partly drawn) [Compound 16, 1,25-Dihydroxy-20S-20-(4-hydroxy-5,5,5-trideutero-4-trideuteromethyl-pentyl)-23Z-ene-26,27-hexafluorocholecalciferol], for which the maximal tolerated dose (MTD) at 4 days in series [1] is 0.3 µg/kg. In the series with IFN-γ production (120 h), this molecule came in with an IC50 of 0.0111 nM.

As to `[2H]C([2H])([2H])C(O)(CCCC(C)(C/C=C\C(O)(C(F)(F)F)C(F)(F)F)[C@H]1CCC2/C(=C/C=C3C[C@@H](O)C[C@H](O)C3)CCC[C@@]21C)C([2H])([2H])[2H]` (stereo partly drawn) [Compound 17, 1,25-Dihydroxy-20S-20-(4-hydroxy-5,5,5-trideutero-4-trideuteromethyl-pentyl)-23Z-ene-26,27-hexafluoro-19-nor-cholecalciferol], the MTD at 4 days in series [1] is 0.3 µg/kg. In the series with IFN-γ production (120 h), this molecule yielded an IC50 of 0.0025 nM.

In the case of `[2H]C([2H])([2H])C(O)(CCCC(C)(C/C=C\C(O)(C(F)(F)F)C(F)(F)F)[C@H]1CCC2/C(=C/C=C3/C[C@@H](O)C[C@H](F)C3=C)CCC[C@@]21C)C([2H])([2H])[2H]` (stereo partly drawn) [Compound 18, 1α-Fluoro-25-hydroxy-20S-20-(4-hydroxy-5,5,5-trideutero-4-trideuteromethyl-pentyl)-23Z-ene-26,27-hexafluorocholecalciferol], in series [1], the MTD at 4 days is 100 µg/kg. For the same molecule, the IC50 with IFN-γ production (120 h) was 0.219 nM.

Take `[2H]C([2H])([2H])C(O)(CCC[C@@](C)(CC#CC(O)(C(F)(F)F)C(F)(F)F)[C@H]1CCC2/C(=C/C=C3/C[C@@H](O)C[C@H](F)C3=C)CCC[C@@]21C)C([2H])([2H])[2H]` (stereo partly drawn) [Compound 24, 1α-Fluoro-25-hydroxy-20S-20-(4-hydroxy-5,5,5-trideutero-4-trideuteromethyl-pentyl)-23-yne-26,27-hexafluorocholecalciferol]: the MTD at 4 days in series [1] is 10 µg/kg. The IC50 with IFN-γ production (120 h) amounted to 0.0213 nM.

For the molecule `[2H]C([2H])([2H])C(O)(CCC[C@](C)(C/C=C\C(O)(C(F)(F)F)C(F)(F)F)[C@H]1CCC2/C(=C/C=C3/C[C@@H](O)C[C@H](O)C3=C)CCC[C@@]21C)C([2H])([2H])[2H]` (stereo partly drawn) [Compound 25, 1,25-Dihydroxy-20R-20-(4-hydroxy-5,5,5-trideutero-4-trideuteromethyl-pentyl)-23Z-ene-26,27-hexafluorocholecalciferol], the MTD at 4 days in series [1] was 3 µg/kg. Moreover, in the series with IFN-γ production (120 h), the IC50 was 0.001 nM.

(Values after US20090099140A1, “20-Alkyl, Gemini Vitamin D3 Compounds and Methods of Use Thereof” (BioXell S.p.A., priority 2005, published 2009).)
